# What was measured:
# Test in all cases: MIC, microdilution broth method (NCCLS)
# Assay type in all cases: cell-based
# Conditions in all cases: 35° C., 16-20 hours
# E. faecalis ATCC29212 = test system: E. faecalis ATCC29212
# Outline: (§1)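 NCCLS microdilution method in cation-adjusted Mueller-Hinton broth, serial two-fold dilutions, final inoculum approximately 5×10^4 CFU/well. MIC read after 16-20 hours' incubation at 35° C.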
# H. influenzae ATCC49247 = test system: H. influenzae ATCC49247
# Outline: as §1
# S. aureus ATCC29213 = test system: S. aureus ATCC29213
# Outline: as §1
# S. pneumoniae ATCC49619 = test system: S. pneumoniae ATCC49619
# Outline: as §1
SMILES,MIC (C: E. faecalis ATCC29212) (E. faecalis ATCC29212),MIC (E: H. influenzae ATCC49247) (H. influenzae ATCC49247),MIC (B: S. aureus ATCC29213) (S. aureus ATCC29213),MIC (D: S. pneumoniae ATCC49619) (S. pneumoniae ATCC49619)
CCC1OC(=O)C(C)C(=O)C(C)C(OC2OC(C)CC(N(C)C)C2O)C(C)(OC(=O)NOCC#Cc2ccc(-c3cnccn3)cc2)CC(C)C(=O)C(C)C2NC(=O)OC12C (stereo not drawn) [Compound 603],0.12 µg/mL,2 µg/mL,0.25 µg/mL,0.03 µg/mL
CC[C@H]1OC(=O)[C@H](C)C(=O)[C@H](C)[C@@H](O[C@@H]2O[C@H](C)C[C@H](N(C)C)[C@H]2O)[C@](C)(OC(=O)NN2CCCCC2)C[C@@H](C)C(=O)[C@H](C)[C@H]2NC(=O)O[C@@]21C [Compound 816],1 µg/mL,16 µg/mL,16 µg/mL,0.5 µg/mL
CCC1OC(=O)C(C)C(=O)C(C)C(OC2OC(C)CC(N(C)C)C2O)C(C)(OC(=O)OCC=Cc2ccc(-c3nnco3)cc2)CC(C)C(=O)C(C)C2NC(=O)OC12C (stereo not drawn) [Compound 52],0.06 µg/mL,1 µg/mL,0.12 µg/mL,≦0.015 μg/mL
CCC1OC(=O)C(C)C(=O)C(C)C(OC2OC(C)CC(N(C)C)C2O)C(C)(OC(=O)OCC=Cc2ccc(-c3cccs3)cc2)CC(C)C(=O)C(C)C2NC(=O)OC12C (stereo not drawn) [Compound 50],0.5 µg/mL,2 µg/mL,1 µg/mL,0.06 µg/mL
CCC1OC(=O)C(C)C(=O)C(C)C(OC2OC(C)CC(N(C)C)C2O)C(C)(OC(=O)OCC(F)=Cc2ccc(-c3ncccn3)cc2)CC(C)C(=O)C(C)C2NC(=O)OC12C (stereo not drawn) [Compound 160],0.06 µg/mL,1 µg/mL,0.12 µg/mL,0.03 µg/mL
CCC1OC(=O)C(C)C(=O)C(C)C(OC2OC(C)CC(N(C)C)C2O)C(C)(OC(=O)OCC=Cc2ccc(-c3ccc(C)nn3)cc2)CC(C)C(=O)C(C)C2NC(=O)OC12C (stereo not drawn) [Compound 61],0.12 µg/mL,1 µg/mL,0.12 µg/mL,0.03 µg/mL
CC[C@H]1OC(=O)[C@H](C)C(=O)[C@H](C)[C@@H](O[C@@H]2O[C@H](C)C[C@H](N(C)C)[C@H]2O)[C@](C)(OC(=O)NNC(=O)OCc2ccccc2)C[C@@H](C)C(=O)[C@H](C)[C@H]2NC(=O)O[C@@]21C [Compound 814],0.5 µg/mL,8 µg/mL,8 µg/mL,0.12 µg/mL
CC[C@H]1OC(=O)[C@H](C)C(=O)[C@H](C)[C@@H](O[C@@H]2O[C@H](C)C[C@H](N(C)C)[C@H]2O)[C@](C)(OC(=O)NOCC#Cc2cnc3ccccc3c2)C[C@@H](C)C(=O)[C@H](C)[C@H]2NC(=O)O[C@@]21C [Compound 618],0.06 µg/mL,1 µg/mL,0.25 µg/mL,0.03 µg/mL
CCC1OC(=O)C(C)C(=O)C(C)C(OC2OC(C)CC(N(C)C)C2O)C(C)(OC(=O)OCC=Cc2ccc(-c3ccn(C)n3)cc2)CC(C)C(=O)C(C)C2NC(=O)OC12C (stereo not drawn) [Compound 26],0.12 µg/mL,2 µg/mL,0.25 µg/mL,0.03 µg/mL
CCC1OC(=O)C(C)C(=O)C(C)C(OC2OC(C)CC(N(C)C)C2O)C(C)(OC(=O)OCC=Cc2ccc(-c3ncc(Br)cn3)cc2)CC(C)C(=O)C(C)C2NC(=O)OC12C (stereo not drawn) [Compound 56],0.25 µg/mL,2 µg/mL,0.5 µg/mL,0.06 µg/mL
CCC1OC(=O)C(C)C(=O)C(C)C(OC2OC(C)CC(N(C)C)C2O)C(C)(OC(=O)OCC=Cc2ccc(-c3cnco3)cc2)CC(C)C(=O)C(C)C2NC(=O)OC12C (stereo not drawn) [Compound 48],0.12 µg/mL,1 µg/mL,0.12 µg/mL,0.03 µg/mL
CCC1OC(=O)C(C)C(=O)C(C)C(OC2OC(C)CC(N(C)C)C2O)C(C)(OC(=O)OCCCn2cnc3ccccc32)CC(C)C(=O)C(C)C2NC(=O)OC12C (stereo not drawn) [Compound 159],0.12 µg/mL,1 µg/mL,0.25 µg/mL,0.03 µg/mL
CC[C@H]1OC(=O)[C@@](C)(F)C(=O)[C@H](C)[C@@H](O[C@@H]2O[C@H](C)C[C@H](N(C)C)[C@H]2O)[C@](C)(OC(=O)NOCC#Cc2cnc3ccccc3c2)C[C@@H](C)C(=O)[C@H](C)[C@H]2NC(=O)O[C@@]21C [Compound 623],0.12 µg/mL,4 µg/mL,0.25 µg/mL,0.03 µg/mL
CC[C@H]1OC(=O)[C@H](C)C(=O)[C@H](C)[C@@H](O[C@@H]2O[C@H](C)C[C@H](N(C)C)[C@H]2O)[C@](C)(OC(=O)Cc2ccccc2)C[C@@H](C)C(=O)[C@H](C)[C@H]2NC(=O)O[C@@]21C [Compound 843],2 µg/mL,16 µg/mL,8 µg/mL,0.5 µg/mL
CCC1OC(=O)C(C)C(=O)C(C)C(OC2OC(C)CC(N(C)C)C2O)C(C)(OC(=O)OCC=Cc2ccc(-n3cncn3)c(F)c2)CC(C)C(=O)C(C)C2NC(=O)OC12C (stereo not drawn) [Compound 31],0.06 µg/mL,1 µg/mL,0.12 µg/mL,0.03 µg/mL

# Further lines, results first:
MIC (C: E. faecalis ATCC29212) (E. faecalis ATCC29212),MIC (E: H. influenzae ATCC49247) (H. influenzae ATCC49247),MIC (B: S. aureus ATCC29213) (S. aureus ATCC29213),MIC (D: S. pneumoniae ATCC49619) (S. pneumoniae ATCC49619),SMILES
0.5 µg/mL,4 µg/mL,1 µg/mL,0.12 µg/mL,CC[C@H]1OC(=O)[C@H](C)C(=O)[C@H](C)[C@@H](O[C@@H]2O[C@H](C)C[C@H](N(C)C)[C@H]2O)[C@](C)(OC(=O)SC/C=C/c2ccccc2)C[C@@H](C)C(=O)[C@H](C)[C@H]2NC(=O)O[C@@]21C [Compound 830]
0.25 µg/mL,16 µg/mL,0.5 µg/mL,0.06 µg/mL,CC[C@H]1OC(=O)[C@H](C)C(=O)[C@H](C)[C@@H](O[C@@H]2O[C@H](C)C[C@H](N(C)C)[C@H]2O)[C@](C)(OC(=O)SC/C=C/c2ccc(-c3ncccn3)cc2)C[C@@H](C)C(=O)[C@H](C)[C@H]2NC(=O)O[C@@]21C [Compound 833]
0.12 µg/mL,2 µg/mL,1 µg/mL,0.06 µg/mL,CC[C@H]1OC(=O)[C@H](C)C(=O)[C@H](C)[C@@H](O[C@@H]2O[C@H](C)C[C@H](N(C)C)[C@H]2O)[C@](C)(OC(=O)SCc2ccc(-c3ccccn3)s2)C[C@@H](C)C(=O)[C@H](C)[C@H]2NC(=O)O[C@@]21C [Compound 839]
0.5 µg/mL,16 µg/mL,2 µg/mL,0.12 µg/mL,CC[C@H]1OC(=O)[C@H](C)C(=O)[C@H](C)[C@@H](O[C@@H]2O[C@H](C)C[C@H](N(C)C)[C@H]2O)[C@](C)(OC(=O)N(C)N(C)CCc2ccc(-c3cnccn3)cc2)C[C@@H](C)C(=O)[C@H](C)[C@H]2NC(=O)O[C@@]21C [Compound 821]
0.12 µg/mL,1 µg/mL,0.25 µg/mL,0.06 µg/mL,CC[C@H]1OC(=O)[C@H](C)C(=O)[C@H](C)[C@@H](O[C@@H]2O[C@H](C)C[C@H](N(C)C)[C@H]2O)[C@](C)(OC(=O)SCc2cnc3ccccc3c2)C[C@@H](C)C(=O)[C@H](C)[C@H]2NC(=O)O[C@@]21C [Compound 838]
1 µg/mL,2 µg/mL,8 µg/mL,0.25 µg/mL,CCC1OC(=O)C(C)C(=O)C(C)C(OC2OC(C)CC(N(C)C)C2O)C(C)(OC(=O)n2ccc(C(=N)CCCc3ccccc3)c2)CC(C)C(=O)C(C)C2NC(=O)OC12C (stereo not drawn) [Compound 846]
1 µg/mL,16 µg/mL,2 µg/mL,0.12 µg/mL,CC[C@H]1OC(=O)[C@H](C)C(=O)[C@H](C)[C@@H](O[C@@H]2O[C@H](C)C[C@H](N(C)C)[C@H]2O)[C@](C)(OC(=O)Nn2ccc(-c3ccc(-c4ncccn4)cc3)c2)C[C@@H](C)C(=O)[C@H](C)[C@H]2NC(=O)O[C@@]21C [Compound 824]
0.25 µg/mL,8 µg/mL,1 µg/mL,0.06 µg/mL,CC[C@H]1OC(=O)[C@H](C)C(=O)[C@H](C)[C@@H](O[C@@H]2O[C@H](C)C[C@H](N(C)C)[C@H]2O)[C@](C)(OC(=O)N(C)NCCc2ccc(-c3cnccn3)cc2)C[C@@H](C)C(=O)[C@H](C)[C@H]2NC(=O)O[C@@]21C [Compound 820]
0.12 µg/mL,4 µg/mL,0.5 µg/mL,0.03 µg/mL,CC[C@H]1OC(=O)[C@H](C)C(=O)[C@H](C)[C@@H](O[C@@H]2O[C@H](C)C[C@H](N(C)C)[C@H]2O)[C@](C)(OC(=O)SCCc2ccc(-c3ncccn3)cc2)C[C@@H](C)C(=O)[C@H](C)[C@H]2NC(=O)O[C@@]21C [Compound 835]
